Tests used:
Assay in all cases: PRESTO-Tango GPCR screen
Type in all cases: cell-based
Details in all cases: 100 µM
GPR26 = molecular target: T1, GPR26 (Homo sapiens, UniProt Q8NDV2)
T1 construct: purchased PRESTO-Tango GPCR kit (Roth lab / Addgene)
Method in brief: (§1)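 A Tango reporter setup in HTLA cells was used, with each receptor introduced by transient transfection. Compound exposure lasted 20 h at 100 μM final, followed by Bright-Glo luminescence measurement; activation was expressed relative to PBS-treated wells.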

GPR141 = molecular target: T2, GPR141 (Homo sapiens, UniProt Q7Z602)
T2 construct: purchased PRESTO-Tango GPCR kit (Roth lab / Addgene)
T2 sequence (Q7Z602 whole entry): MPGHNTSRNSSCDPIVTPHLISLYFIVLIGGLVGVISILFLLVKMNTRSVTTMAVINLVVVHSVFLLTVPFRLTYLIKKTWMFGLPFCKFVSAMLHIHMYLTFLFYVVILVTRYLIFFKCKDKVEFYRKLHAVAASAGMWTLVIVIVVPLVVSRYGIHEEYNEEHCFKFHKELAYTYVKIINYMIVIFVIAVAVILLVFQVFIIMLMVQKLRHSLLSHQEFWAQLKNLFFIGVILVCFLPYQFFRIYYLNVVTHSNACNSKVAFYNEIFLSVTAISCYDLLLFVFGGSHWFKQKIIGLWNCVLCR
Method in brief: as §1

CHRM2 = molecular target: T3, CHRM2 (Homo sapiens, UniProt P08172)
T3 construct: purchased PRESTO-Tango GPCR kit (Roth lab / Addgene)
Method in brief: as §1

GPR64 = molecular target: T4, GPR64 (Homo sapiens, UniProt Q8IZP9)
T4 construct: purchased PRESTO-Tango GPCR kit (Roth lab / Addgene)
Method in brief: as §1

SSTR5 = molecular target: T5, SSTR5 (Homo sapiens, UniProt P35346)
T5 construct: purchased PRESTO-Tango GPCR kit (Roth lab / Addgene)
Method in brief: as §1

GPR55 = molecular target: T6, GPR55 (Homo sapiens, UniProt Q9Y2T6)
T6 construct: purchased PRESTO-Tango GPCR kit (Roth lab / Addgene)
Method in brief: as §1

ADORA2A = molecular target: T7, ADORA2A (Homo sapiens, UniProt P29274)
T7 construct: purchased PRESTO-Tango GPCR kit (Roth lab / Addgene)
T7 sequence (P29274 whole entry): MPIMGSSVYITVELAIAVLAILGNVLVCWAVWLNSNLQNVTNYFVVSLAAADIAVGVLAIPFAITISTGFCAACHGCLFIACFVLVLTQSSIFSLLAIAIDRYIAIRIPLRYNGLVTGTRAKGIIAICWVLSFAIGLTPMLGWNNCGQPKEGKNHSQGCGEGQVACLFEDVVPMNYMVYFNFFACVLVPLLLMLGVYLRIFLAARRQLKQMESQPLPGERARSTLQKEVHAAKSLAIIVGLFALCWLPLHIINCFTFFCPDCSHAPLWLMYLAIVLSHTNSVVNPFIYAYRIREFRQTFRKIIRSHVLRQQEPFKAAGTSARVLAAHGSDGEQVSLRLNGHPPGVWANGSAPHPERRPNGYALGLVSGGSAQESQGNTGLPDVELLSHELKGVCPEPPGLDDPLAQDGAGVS
Method in brief: as §1

GIPR = molecular target: T8, GIPR (Homo sapiens, UniProt P48546)
T8 construct: purchased PRESTO-Tango GPCR kit (Roth lab / Addgene)
Method in brief: as §1

GPR174 = molecular target: T9, GPR174 (Homo sapiens, UniProt Q9BXC1)
T9 construct: purchased PRESTO-Tango GPCR kit (Roth lab / Addgene)
T9 sequence (Q9BXC1 whole entry): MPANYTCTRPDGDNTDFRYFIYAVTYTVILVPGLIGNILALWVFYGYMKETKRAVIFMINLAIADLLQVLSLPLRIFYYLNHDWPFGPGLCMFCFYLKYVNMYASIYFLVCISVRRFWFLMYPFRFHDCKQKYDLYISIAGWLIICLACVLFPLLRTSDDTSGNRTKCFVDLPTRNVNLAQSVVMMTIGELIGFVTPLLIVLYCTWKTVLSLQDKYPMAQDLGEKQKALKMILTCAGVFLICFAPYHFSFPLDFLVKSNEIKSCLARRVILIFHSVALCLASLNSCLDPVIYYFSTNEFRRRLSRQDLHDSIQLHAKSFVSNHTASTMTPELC
Method in brief: as §1

UTS2R = molecular target: T10, UTS2R (Homo sapiens, UniProt Q9UKP6)
T10 construct: purchased PRESTO-Tango GPCR kit (Roth lab / Addgene)
Method in brief: as §1

HCTR1 = molecular target: T11, HCTR1 (Homo sapiens, UniProt O43613)
T11 construct: purchased PRESTO-Tango GPCR kit (Roth lab / Addgene)
Method in brief: as §1

GPR52 = molecular target: T12, GPR52 (Homo sapiens, UniProt Q9Y2T5)
T12 construct: purchased PRESTO-Tango GPCR kit (Roth lab / Addgene)
T12 sequence (Q9Y2T5 whole entry): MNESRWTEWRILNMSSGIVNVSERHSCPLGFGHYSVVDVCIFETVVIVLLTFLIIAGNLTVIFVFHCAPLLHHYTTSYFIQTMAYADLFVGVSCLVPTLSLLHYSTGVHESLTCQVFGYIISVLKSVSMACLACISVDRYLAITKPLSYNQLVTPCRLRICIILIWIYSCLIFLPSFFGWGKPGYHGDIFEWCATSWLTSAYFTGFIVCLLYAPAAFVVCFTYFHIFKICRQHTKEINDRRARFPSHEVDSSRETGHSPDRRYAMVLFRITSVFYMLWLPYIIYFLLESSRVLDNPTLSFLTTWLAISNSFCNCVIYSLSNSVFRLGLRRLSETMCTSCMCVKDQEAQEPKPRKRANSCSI
Method in brief: as §1

HTR6 = molecular target: T13, HTR6 (Homo sapiens, UniProt P50406)
T13 construct: purchased PRESTO-Tango GPCR kit (Roth lab / Addgene)
Method in brief: as §1

NMUR2 = molecular target: T14, NMUR2 (Homo sapiens, UniProt Q9GZQ4)
T14 construct: purchased PRESTO-Tango GPCR kit (Roth lab / Addgene)
Method in brief: as §1

FPR2 = molecular target: T15, FPR2 (Homo sapiens, UniProt P25090)
T15 construct: purchased PRESTO-Tango GPCR kit (Roth lab / Addgene)
T15 sequence (P25090 whole entry): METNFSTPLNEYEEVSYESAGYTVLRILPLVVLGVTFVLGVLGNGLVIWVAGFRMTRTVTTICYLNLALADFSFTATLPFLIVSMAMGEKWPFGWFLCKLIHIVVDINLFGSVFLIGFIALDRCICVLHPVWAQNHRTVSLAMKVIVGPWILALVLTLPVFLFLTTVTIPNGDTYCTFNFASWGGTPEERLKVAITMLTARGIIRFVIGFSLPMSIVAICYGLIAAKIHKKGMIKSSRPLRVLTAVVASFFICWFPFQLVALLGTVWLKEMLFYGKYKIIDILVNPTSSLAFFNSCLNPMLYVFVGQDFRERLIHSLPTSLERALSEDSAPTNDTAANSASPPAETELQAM
Method in brief: as §1

HTR2C = molecular target: T16, HTR2C (Homo sapiens, UniProt P28335)
T16 construct: purchased PRESTO-Tango GPCR kit (Roth lab / Addgene)
Method in brief: as §1

NPBW1 = molecular target: T17, NPBW1 (Homo sapiens, UniProt P48145)
T17 construct: purchased PRESTO-Tango GPCR kit (Roth lab / Addgene)
T17 sequence (P48145 whole entry): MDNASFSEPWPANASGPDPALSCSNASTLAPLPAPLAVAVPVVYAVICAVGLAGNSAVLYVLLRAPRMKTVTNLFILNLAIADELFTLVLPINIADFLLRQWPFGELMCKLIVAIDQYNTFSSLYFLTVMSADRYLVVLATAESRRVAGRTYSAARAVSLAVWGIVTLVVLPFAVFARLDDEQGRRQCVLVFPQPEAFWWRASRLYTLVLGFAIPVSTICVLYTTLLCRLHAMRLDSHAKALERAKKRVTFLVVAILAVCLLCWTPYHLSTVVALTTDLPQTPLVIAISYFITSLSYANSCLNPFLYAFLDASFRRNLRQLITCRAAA
Method in brief: as §1

CXCR2 = molecular target: T18, CXCR2 (Homo sapiens, UniProt P25025)
T18 construct: purchased PRESTO-Tango GPCR kit (Roth lab / Addgene)
Method in brief: as §1

MLNR = molecular target: T19, MLNR (Homo sapiens, UniProt O43193)
T19 construct: purchased PRESTO-Tango GPCR kit (Roth lab / Addgene)
Method in brief: as §1

GPR152 = molecular target: T20, GPR152 (Homo sapiens, UniProt Q8TDT2)
T20 construct: purchased PRESTO-Tango GPCR kit (Roth lab / Addgene)
T20 sequence (Q8TDT2 whole entry): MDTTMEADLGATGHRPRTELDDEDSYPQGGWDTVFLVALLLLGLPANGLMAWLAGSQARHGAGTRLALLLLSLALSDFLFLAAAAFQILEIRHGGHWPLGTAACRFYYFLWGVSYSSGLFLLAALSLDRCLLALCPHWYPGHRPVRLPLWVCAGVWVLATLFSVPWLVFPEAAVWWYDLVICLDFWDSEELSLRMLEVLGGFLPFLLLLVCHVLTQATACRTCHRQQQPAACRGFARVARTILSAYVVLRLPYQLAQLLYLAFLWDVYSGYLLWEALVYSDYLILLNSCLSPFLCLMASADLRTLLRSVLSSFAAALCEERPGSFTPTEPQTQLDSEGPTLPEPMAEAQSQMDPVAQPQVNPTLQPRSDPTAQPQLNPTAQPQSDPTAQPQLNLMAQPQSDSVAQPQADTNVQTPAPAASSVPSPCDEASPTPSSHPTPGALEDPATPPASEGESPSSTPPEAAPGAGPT
Method in brief: as §1

CYSLTR2 = molecular target: T21, CYSLTR2 (Homo sapiens, UniProt Q9NS75)
T21 construct: purchased PRESTO-Tango GPCR kit (Roth lab / Addgene)
Method in brief: as §1

P2RY12 = molecular target: T22, P2RY12 (Homo sapiens, UniProt Q9H244)
T22 construct: purchased PRESTO-Tango GPCR kit (Roth lab / Addgene)
Method in brief: as §1

DRD2 = molecular target: T23, DRD2 (Homo sapiens, UniProt P14416)
T23 construct: purchased PRESTO-Tango GPCR kit (Roth lab / Addgene)
Method in brief: as §1

ADORA3 = molecular target: T24, ADORA3 (Homo sapiens, UniProt P0DMS8)
T24 construct: purchased PRESTO-Tango GPCR kit (Roth lab / Addgene)
Method in brief: as §1

OPRM1 = molecular target: T25, OPRM1 (Homo sapiens, UniProt P35372)
T25 construct: purchased PRESTO-Tango GPCR kit (Roth lab / Addgene)
Method in brief: as §1

GPR75 = molecular target: T26, GPR75 (Homo sapiens, UniProt O95800)
T26 construct: purchased PRESTO-Tango GPCR kit (Roth lab / Addgene)
T26 sequence (O95800 whole entry): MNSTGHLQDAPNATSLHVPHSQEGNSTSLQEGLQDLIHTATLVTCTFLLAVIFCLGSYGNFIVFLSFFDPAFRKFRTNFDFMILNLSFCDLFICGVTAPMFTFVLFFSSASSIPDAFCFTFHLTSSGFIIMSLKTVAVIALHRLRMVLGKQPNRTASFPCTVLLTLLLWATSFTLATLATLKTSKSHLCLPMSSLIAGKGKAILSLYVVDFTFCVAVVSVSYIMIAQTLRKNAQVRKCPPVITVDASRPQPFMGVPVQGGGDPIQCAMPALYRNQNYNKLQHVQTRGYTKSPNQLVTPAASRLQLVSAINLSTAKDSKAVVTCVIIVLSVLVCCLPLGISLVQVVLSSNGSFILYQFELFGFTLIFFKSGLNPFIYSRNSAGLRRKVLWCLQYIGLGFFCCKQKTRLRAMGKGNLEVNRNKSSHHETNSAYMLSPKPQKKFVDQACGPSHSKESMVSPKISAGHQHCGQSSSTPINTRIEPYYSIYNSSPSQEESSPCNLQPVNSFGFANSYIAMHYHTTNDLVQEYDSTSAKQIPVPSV
Method in brief: as §1

S1PR2 = molecular target: T27, S1PR2 (Homo sapiens, UniProt O95136)
T27 construct: purchased PRESTO-Tango GPCR kit (Roth lab / Addgene)
T27 sequence (O95136 whole entry): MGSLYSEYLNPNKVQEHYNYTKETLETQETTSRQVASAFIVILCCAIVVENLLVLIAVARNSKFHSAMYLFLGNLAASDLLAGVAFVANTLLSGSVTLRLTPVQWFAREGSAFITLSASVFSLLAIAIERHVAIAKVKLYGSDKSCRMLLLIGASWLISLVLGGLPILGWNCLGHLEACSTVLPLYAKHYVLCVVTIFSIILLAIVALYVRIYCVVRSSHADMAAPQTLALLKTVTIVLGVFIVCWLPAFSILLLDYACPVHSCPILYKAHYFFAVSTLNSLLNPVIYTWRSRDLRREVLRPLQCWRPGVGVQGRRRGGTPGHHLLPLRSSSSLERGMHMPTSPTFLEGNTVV
Method in brief: as §1

ADRA2C = molecular target: T28, ADRA2C (Homo sapiens, UniProt P18825)
T28 construct: purchased PRESTO-Tango GPCR kit (Roth lab / Addgene)
Method in brief: as §1

ADRA2B = molecular target: T29, ADRA2B (Homo sapiens, UniProt P18089)
T29 construct: purchased PRESTO-Tango GPCR kit (Roth lab / Addgene)
Method in brief: as §1

LPAR2 = molecular target: T30, LPAR2 (Homo sapiens, UniProt Q9HBW0)
T30 construct: purchased PRESTO-Tango GPCR kit (Roth lab / Addgene)
Method in brief: as §1

APJ = molecular target: T31, APJ (Homo sapiens, UniProt P35414)
T31 construct: purchased PRESTO-Tango GPCR kit (Roth lab / Addgene)
T31 sequence (P35414 whole entry): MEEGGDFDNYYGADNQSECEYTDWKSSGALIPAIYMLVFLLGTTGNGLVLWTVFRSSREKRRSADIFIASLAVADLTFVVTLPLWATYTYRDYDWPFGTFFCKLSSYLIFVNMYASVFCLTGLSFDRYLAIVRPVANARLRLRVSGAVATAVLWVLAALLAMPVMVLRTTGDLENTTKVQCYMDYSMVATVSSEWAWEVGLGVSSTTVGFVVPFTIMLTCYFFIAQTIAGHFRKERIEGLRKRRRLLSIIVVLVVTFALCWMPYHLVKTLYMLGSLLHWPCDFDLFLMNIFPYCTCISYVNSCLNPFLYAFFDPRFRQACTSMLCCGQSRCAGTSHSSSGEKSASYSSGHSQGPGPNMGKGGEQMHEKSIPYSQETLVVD
Method in brief: as §1

CCKAR = molecular target: T32, CCKAR (Homo sapiens, UniProt P32238)
T32 construct: purchased PRESTO-Tango GPCR kit (Roth lab / Addgene)
Method in brief: as §1

GPER = molecular target: T33, GPER (Homo sapiens, UniProt Q99527)
T33 construct: purchased PRESTO-Tango GPCR kit (Roth lab / Addgene)
Method in brief: as §1

GPR150 = molecular target: T34, GPR150 (Homo sapiens, UniProt Q8NGU9)
T34 construct: purchased PRESTO-Tango GPCR kit (Roth lab / Addgene)
T34 sequence (Q8NGU9 whole entry): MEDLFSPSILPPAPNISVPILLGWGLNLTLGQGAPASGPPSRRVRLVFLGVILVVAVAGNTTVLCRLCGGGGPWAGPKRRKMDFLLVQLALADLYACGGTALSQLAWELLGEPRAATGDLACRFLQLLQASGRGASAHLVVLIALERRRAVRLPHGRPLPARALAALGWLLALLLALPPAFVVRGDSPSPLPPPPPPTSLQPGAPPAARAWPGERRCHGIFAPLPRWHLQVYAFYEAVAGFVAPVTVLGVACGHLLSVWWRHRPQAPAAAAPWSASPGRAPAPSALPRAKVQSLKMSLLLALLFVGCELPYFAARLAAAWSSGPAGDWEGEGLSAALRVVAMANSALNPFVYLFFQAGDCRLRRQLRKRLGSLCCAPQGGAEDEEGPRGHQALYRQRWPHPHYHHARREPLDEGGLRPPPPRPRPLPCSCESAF
Method in brief: as §1

RXFP4 = molecular target: T35, RXFP4 (Homo sapiens, UniProt Q8TDU9)
T35 construct: purchased PRESTO-Tango GPCR kit (Roth lab / Addgene)
T35 sequence (Q8TDU9 whole entry): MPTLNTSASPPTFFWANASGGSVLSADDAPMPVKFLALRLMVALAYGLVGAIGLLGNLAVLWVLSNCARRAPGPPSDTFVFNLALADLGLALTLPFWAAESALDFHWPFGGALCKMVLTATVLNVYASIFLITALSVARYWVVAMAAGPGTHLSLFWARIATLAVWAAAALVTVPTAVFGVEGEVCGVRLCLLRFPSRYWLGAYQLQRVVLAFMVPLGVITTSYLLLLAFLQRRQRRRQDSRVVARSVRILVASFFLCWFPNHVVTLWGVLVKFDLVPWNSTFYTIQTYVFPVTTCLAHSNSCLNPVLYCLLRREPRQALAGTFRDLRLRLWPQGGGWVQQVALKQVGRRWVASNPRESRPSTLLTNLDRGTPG
Method in brief: as §1

GPR116 = molecular target: T36, GPR116 (Homo sapiens, UniProt Q8IZF2)
T36 construct: purchased PRESTO-Tango GPCR kit (Roth lab / Addgene)
Method in brief: as §1

SMILES | GPCR activation (heatmap value) (GPR26) | GPCR activation (heatmap value) (GPR141) | GPCR activation (heatmap value) (CHRM2) | GPCR activation (heatmap value) (GPR64) | GPCR activation (heatmap value) (SSTR5) | GPCR activation (heatmap value) (GPR55) | GPCR activation (heatmap value) (ADORA2A) | GPCR activation (heatmap value) (GIPR) | GPCR activation (heatmap value) (GPR174) | GPCR activation (heatmap value) (UTS2R) | GPCR activation (heatmap value) (HCTR1) | GPCR activation (heatmap value) (GPR52) | GPCR activation (heatmap value) (HTR6) | GPCR activation (heatmap value) (NMUR2) | GPCR activation (heatmap value) (FPR2) | GPCR activation (heatmap value) (HTR2C) | GPCR activation (heatmap value) (NPBW1) | GPCR activation (heatmap value) (CXCR2) | GPCR activation (heatmap value) (MLNR) | GPCR activation (heatmap value) (GPR152) | other results
CC(C)Cc1ncc(CCCCNC(=N)N)[nH]c1=O [3-Homo] | -1.573 | 0.2402 | 0.1441 | 0.7434 | -0.02493 | -0.519 | 0.2086 | 0.1024 | 0.4742 | -1.423 | 0.1163 | 0.2473 | -0.2493 | 0.3619 | 0.05882 | 0.3471 | -0.4089 | 0.01869 | -0.3794 | -0.3396 | GPCR activation (heatmap value) (CYSLTR2): -0.09894; GPCR activation (heatmap value) (P2RY12): 0.3372; GPCR activation (heatmap value) (DRD2): -0.9836; GPCR activation (heatmap value) (ADORA3): -0.404; GPCR activation (heatmap value) (OPRM1): 0.127; GPCR activation (heatmap value) (GPR75): 0.5978; GPCR activation (heatmap value) (S1PR2): -0.09813; GPCR activation (heatmap value) (ADRA2C): 0.6954; GPCR activation (heatmap value) (ADRA2B): -0.5041; GPCR activation (heatmap value) (LPAR2): 0.05246; GPCR activation (heatmap value) (APJ): 0.4932; GPCR activation (heatmap value) (CCKAR): 0.3945; GPCR activation (heatmap value) (GPER): -0.07314; GPCR activation (heatmap value) (GPR150): -0.9768; GPCR activation (heatmap value) (RXFP4): -0.8625; GPCR activation (heatmap value) (GPR116): -0.4317
CC(C)Cc1ncc(CCCNC(=N)N)[nH]c1=O [compound 3] | 2.339 | -0.1192 | 0.33 | 0.632 | -1.082 | 0.5927 | 0.347 | 0.1911 | 0.3321 | 0.9484 | -0.3941 | 0.9036 | 0.5944 | 0.09545 | 0.522 | 0.7228 | -0.8992 | 0.3766 | -1.345 | -1.289 | GPCR activation (heatmap value) (CYSLTR2): -0.2194; GPCR activation (heatmap value) (P2RY12): 0.4559; GPCR activation (heatmap value) (DRD2): 0.05842; GPCR activation (heatmap value) (ADORA3): -0.3342; GPCR activation (heatmap value) (OPRM1): 1.469; GPCR activation (heatmap value) (GPR75): -1.251; GPCR activation (heatmap value) (S1PR2): 0.5246; GPCR activation (heatmap value) (ADRA2C): 0.2266; GPCR activation (heatmap value) (ADRA2B): 2.203; GPCR activation (heatmap value) (LPAR2): -0.4851; GPCR activation (heatmap value) (APJ): 0.6044; GPCR activation (heatmap value) (CCKAR): 0.06622; GPCR activation (heatmap value) (GPER): 0.1603; GPCR activation (heatmap value) (GPR150): -0.9206; GPCR activation (heatmap value) (RXFP4): -0.6712; GPCR activation (heatmap value) (GPR116): -0.4037
